ChEMBL document CHEMBL2448809, “UCSF DeRisi Lab MMV Box Apicoplast Screening”

The compounds below were run on Plasmodium falciparum (assay: MMV: Compounds (1uM) were screened in a 72hr growth assay monitored by flow cytometry both in the presence and absence of supplemental isopentenyl pyrophosphate (IPP) 200uM. Compounds which fail to show anti-malarial activity when chemically rescued by IPP are therefore specific to the apicoplast. The values are expressed as the ratio of the corresponding activity with and without IPP, respectively.).
Assay type: functional, W2
Work on `Cc1ccc(C)c(Cn2c(N3CCC(C(=O)NCc4cccs4)CC3)nc3ccccc32)c1` yielded a Ratio of 1.
`O=C(NCC(c1ccsc1)N1CCCCCC1)c1ccc(C(F)(F)F)cc1` (centres undefined) showed a Ratio of 0.9077.
Compound `CCN(CC)CCn1c(=N)n(CC(O)c2ccc(Cl)c(Cl)c2)c2ccccc21.Cl` (centres undefined) has a Ratio of 0.9508.
`Cc1ccc(-c2cc3c(SCC(=O)Nc4cc(C(F)(F)F)ccc4Cl)nccn3n2)cc1` gave a Ratio of 0.9375.
`Oc1c(CN2CCN(c3ccccc3F)CC2)cc(Br)c2cccnc12` gave a Ratio of 0.8919.
In the case of `COc1ccc2nc(C)cc(Nc3ccc(Cl)cc3)c2c1`, the Ratio is reported as 0.8189.
Work on `Cc1ccc(C2CC(C(F)(F)F)n3nc(C(=O)N4CCN(C(c5ccccc5)c5ccccc5)CC4)cc3N2)cc1` (centres undefined) yielded a Ratio of 0.725.
Work on `Oc1ccc(Cl)cc1CNc1nc2ccccc2[nH]1` yielded a Ratio of 1.068.
For `CC(C)(C)CC(C)(C)NCC(O)COc1ccc(Cl)cc1Cl` (centres undefined), the Ratio was 0.8983.
In the case of `CCOc1cc2c(cc1OCC)C(c1cc(Cl)c(O)c(OCC)c1)NCC2` (centres undefined), the Ratio is reported as 0.8824.
`CC(C)(C)C(=O)Nc1ccc(C(=O)Nc2cccc(-c3nc4ccccc4[nH]3)c2)cc1` showed a Ratio of 0.7684.
With `COc1ccc(Br)cc1C1Nc2ccc3ccccc3c2C2=C1C(=O)CC(c1ccccc1)C2` (centres undefined) the Ratio was 0.8077.
Work on `Cc1ccc(-c2nc3ccccc3o2)cc1NCc1cc(Cc2ccccc2)ccc1O` yielded a Ratio of 1.167.
In the case of `COc1ccccc1CNC(=O)C1c2ccccc2C(=O)N(CC(C)C)C1c1cccs1` (centres undefined), the Ratio is reported as 1.038.
`O=C(c1ccccc1F)N(Cc1ccc(Cl)cc1)c1ccccn1` gave a Ratio of 0.7857.
In the case of `COc1ccccc1CNC(=O)CCn1c(=O)[nH]c2ccccc2c1=O`, the Ratio is reported as 1.153.
`CCN(CC)CCNc1ccnc2cc(Cl)ccc12` gave a Ratio of 0.8734.
In the case of `CC(C)=CCN1CCC(C(=O)Nc2ccc(-c3nc4ccccc4[nH]3)cc2)CC1`, the Ratio is reported as 0.8533.
Work on `COc1ccc(C(=O)C2CC2c2ccc(Cl)cc2)cc1` (centres undefined) yielded a Ratio of 1.308.
Work on `COc1ccc(OC)c(C2C3=C(CC(C)(C)CC3=O)N(c3ccc(Cl)c(Cl)c3)C3=C2C(=O)CC(C)(C)C3)c1` yielded a Ratio of 0.9277.
In the case of `Clc1ccc2c(N3CCCC3)ccnc2c1`, the Ratio is reported as 0.8475.
Compound `OC(CNC1CCCCC1)Cn1c2ccc(I)cc2c2cc(I)ccc21` (centres undefined) has a Ratio of 1.043.
`COc1cc(C(=O)ON=C(N)Cc2cccc3ccccc23)cc(OC)c1OC` gave a Ratio of 1.265.
For `CC1CN(C(=O)c2sc3ccccc3c2Cl)CC(C)O1` (centres undefined), the Ratio was 0.8415.
`CSc1ccccc1C(=O)Nc1nc(-c2ccccn2)cs1` was tested, and the Ratio was 0.8125.
`COc1ccc2c(c1OC)C(=O)N1c3ccccc3N=C(c3ccc(C)cc3)CC21` (centres undefined) gave a Ratio of 1.052.
Work on `CN(C)CCCNc1c2ccccc2nc2ccccc12` yielded a Ratio of 0.7564.
`CCN1CCN(c2c(C(=O)c3ccccc3)cnc3cc(OC)c(OC)cc23)CC1` was tested, and the Ratio was 0.9828.
With `COc1cc2c(cc1OC)C1=NNC(=O)C1=NC(C)(C)C2` the Ratio was 1.994.
With `Cl.Oc1ccccc1CNCC12CC3CC(CC(C3)C1)C2` the Ratio was 0.8.
Work on `Oc1ccc(C(=C(Cl)Cl)c2ccc(O)cc2)cc1` yielded a Ratio of 1.113.
Compound `COc1ccc(C=C2SC(=N)N(c3ccccc3OC)C2=O)cc1` has a Ratio of 0.8861.
`CCN(CC)c1ccc(NC(=O)c2cccs2)cc1` showed a Ratio of 1.
`CN1CCN(c2nc(Nc3ccc(O)cc3)nc3ccccc23)CC1.Cl` gave a Ratio of 0.8636.
`O=C1c2ccccc2-c2nnc(-c3ccc(Br)cc3)cc21` showed a Ratio of 0.8889.
`Cc1cc(C)c2nc(N3CCC(C(=O)NCCCN4CCC(N5CCCCC5)CC4)CC3)sc2c1` was tested, and the Ratio was 0.8033.
`CN(C)c1ccc(-c2nc3cc(N)ccc3[nH]2)cc1` showed a Ratio of 1.036.
`O=C1c2ccc3c4c(ccc(c24)C(=O)N1CCCCO)C(=O)N(CCCCO)C3=O` was tested, and the Ratio was 1.047.
In the case of `CCOC(=O)c1ccc2nc(-c3ccccc3)cc(O)c2c1`, the Ratio is reported as 0.3465.
`COc1ccc2c(c1)OC(O)(C(F)(F)C(F)(F)F)CC2=O` (centres undefined) showed a Ratio of 0.9.
`CCN(CC)CCCNc1ccnc2cc3ccccc3cc12` showed a Ratio of 0.9344.
Work on `CCOC(=O)c1c[nH]c2c(CC)cccc2c1=O` yielded a Ratio of 0.8986.
Compound `OCCNc1nc(Nc2ccc(Cl)c(Cl)c2)nc2ccccc12` has a Ratio of 1.062.
`CCCc1c(C)nc2ccccc2c1O` showed a Ratio of 0.9683.
